Test results published in patent US11452758B2, “Antimicrobial peptide derived from LL37 peptide and uses thereof” (INDUSTRY-ACADEMIC COOPERATION FOUNDATION, CHOSUN UNIVERSITY, priority 2018, dated 2022).
Converted amounts (≈) assume the structure as drawn. Where a SMILES comes first, the peptide text is derived from it.

Columns and labels:
[1] = test system: Acinetobacter baumannii KCTC 2508; experiment: Flow cytometry after PI staining (bacteria membrane); format: cell-based; details: peptide at concentration of MIC, 30 minutes at 37° C.
Protocol: To determine whether or not the peptides prepared by the method of Example 1 have any effect on bacteria membrane, an analysis was made by flow cytometry.
After that, the supernatant was removed by centrifuge (10,000 rpm) and stained with propidium iodide (PI, concentration of 10 μg/ml) for 30 minutes at 4° C. Thereafter, unbound propidium iodide was removed by centrifuge, and the problem of cell aggregation phenomenon was solved by adding physiological saline (PBS) in an amount of 1 ml.

A. baumannii KCTC 2508 [2] = format: cell-based, Acinetobacter baumannii; details: for Minimal inhibitory concentration: KCTC 2508, 18 h
From the text: (§1) To compare the antimicrobial activity among the peptides produced by the method of Example 1, the inventors of the present invention measured the minimal growth inhibitory concentration (MIC), which is minimum concentration of the peptide not allowing any […] of bacterial cells.
(§2) Specifically, the bacterial strains described in the following Table 2 were purchased and cultured to a mid-log phase in MHB (Mueller Hinton Broth) medium. Then, after dilution to bacterial cell concentration of 2×10^5 cells/50 μl, the cells were inoculated to a microtiter plate (NUNC, USA). Thereafter, LL37-1, LL37-2, LL37-3 or LL37-4 peptide which has been synthesized in Example 1 above was subjected to serial dilution, ½ times for each, in a 96-well plate. After adding the peptides in an amount of 50 μl to the cell plate, the cells were cultured for 18 hours at 37° C. By using a microtiter plate reader (Merck Elisa reader, Germany), the absorbance was measured at a wavelength of 600 nm to determine the MIC value of each bacterial strain. As a control group, LL37 as a mother peptide was used and subjected to the same process as above to determine the MIC value of each strain.

A. baumannii #5 [3] = format: cell-based, Acinetobacter baumannii; details: #5
From the text: as §1, §2

A. baumannii #13 = format: cell-based, Acinetobacter baumannii; details: #13
From the text: as §1, §2

A. baumannii #2 = format: cell-based, Acinetobacter baumannii; details: #2
From the text: as §1, §2

A. baumannii #8 = format: cell-based, Acinetobacter baumannii; details: #8
From the text: as §1, §2

A. baumannii #4 = format: cell-based, Acinetobacter baumannii; details: #4
From the text: as §1, §2

A. baumannii #12 = format: cell-based, Acinetobacter baumannii; details: #12
From the text: as §1, §2

A. baumannii #19 = format: cell-based, Acinetobacter baumannii; details: #19
From the text: as §1, §2

A. baumannii #3 = format: cell-based, Acinetobacter baumannii; details: #3
From the text: as §1, §2

A. baumannii #9 = format: cell-based, Acinetobacter baumannii; details: #9
From the text: as §1, §2

A. baumannii #10 [4] = format: cell-based, Acinetobacter baumannii; details: #10
From the text: as §1, §2

A. baumannii #11 = format: cell-based, Acinetobacter baumannii; details: #11
From the text: as §1, §2

A. baumannii KCTC 2508 [5] = experiment: Antibiofilm activity, Crystal violet staining; format: cell-based, Acinetobacter baumannii; details: 24 hours
Protocol: (§3) To compare the antimicrobial activity among the peptides produced by the method of Example 1, the inventors of the present invention measured the biofilm inhibitory concentration value of the peptide for not allowing any dissociation of bacterial cells.
(§4) Specifically, among the bacterial strains described in the above Table 2, bacteria showing the most favorable biofilm forming were cultured to a mid-log phase in a medium with suitable composition. Then, after dilution to bacterial cell concentration of 1×10^6 cells/50 μl, the cells were inoculated to a microtiter plate. Thereafter, LL37, LL37-1, LL37-2, LL37-3 or LL37-4 peptide which has been synthesized in Example 1 above was diluted, 1/10 times for each, with 10 mM phosphate buffered physiological saline (PBS) in a 96-well plate. After adding the peptide (50 μl) to each well of the plate, the cells were cultured for 24 hours at 37° C. After removing the supernatant completely, the cells were fixed with 100% methanol for 15 minutes and stained for 1 hour with Crystal violet staining solution followed by rinsing for 3 times. Then, after dissolving in 95% ethanol, the absorbance was measured at a wavelength of 595 nm by using a microtiter plate reader to determine the biofilm minimal inhibitory concentration value of each bacterial strain.

A. baumannii #5 [6] = experiment: Antibiofilm activity, Crystal violet staining; format: cell-based, Acinetobacter baumannii; details: 24 hours
Protocol: as §3, §4

A. baumannii #10 [7] = experiment: Antibiofilm activity, Crystal violet staining; format: cell-based, Acinetobacter baumannii; details: 24 hours
Protocol: as §3, §4

E. coli ATCC 25922 = format: cell-based, Escherichia coli; details: ATCC 25922, 18 h
From the text: as §1, §2

S. aureus ATCC 25923 = format: cell-based, Staphylococcus aureus; details: ATCC 25923, 18 h
From the text: as §1, §2

[8] = test system: Human macrophage cells (U937) infected with Acinetobacter baumannii KCTC 2508; experiment: Expression of inflammatory cytokines, Western blot and real time RT-PCR; format: cell-based; details: U937 infected with A. baumannii KCTC 2508, peptide added 1 hour after infection, sample after 9 hours
Protocol: To see whether or not a change in expression of inflammatory cytokines in macrophage is caused by the peptides that are prepared by the method of above Example 1, determination was made by Western blot and real time reverse transcription polymerase chain reaction.
Specifically, Acinetobacter baumannii KCTC 2508 cells were cultured to a mid-log phase in MHB medium, and then diluted to a cell concentration of 1×10^7 cells/ml in physiological saline. Human macrophage cells (U937) were then infected with the resulting cells in time-dependent manner to yield the first sample, and another macrophage cells were infected with Acinetobacter baumannii KCTC 2508 cells, which have been diluted to a concentration of 1×10^7 cells, and added with, 1 hour after the infection, mother peptide LL37 or the homologous peptide to collect the second sample after 9 hours. Both collected samples were treated with cell lysis buffer to obtain the supernatant (sup) and pellet (lysate). Thereafter, by Western blot and real time reverse transcription polymerase chain reaction, a change in the expression level of inflammatory cytokines was examined.

Compound	effect on bacteria membrane (PI fluorescence, flow cytometry) [1]	Minimal inhibitory concentration (A. baumannii KCTC 2508 [2])	Minimal inhibitory concentration (A. baumannii #5 [3])	Minimal inhibitory concentration (A. baumannii #13)	Minimal inhibitory concentration (A. baumannii #2)	Minimal inhibitory concentration (A. baumannii #8)	Minimal inhibitory concentration (A. baumannii #4)	Minimal inhibitory concentration (A. baumannii #12)	Minimal inhibitory concentration (A. baumannii #19)	Minimal inhibitory concentration (A. baumannii #3)	Minimal inhibitory concentration (A. baumannii #9)	Minimal inhibitory concentration (A. baumannii #10 [4])	Minimal inhibitory concentration (A. baumannii #11)	Biofilm forming ability (A. baumannii KCTC 2508 [5]; peptide 2 μM)	Biofilm forming ability (A. baumannii KCTC 2508 [5]; peptide 4 μM)	Biofilm forming ability (A. baumannii KCTC 2508 [5]; peptide 8 μM)	Biofilm forming ability (A. baumannii KCTC 2508 [5]; peptide 16 μM)	Biofilm forming ability (A. baumannii KCTC 2508 [5]; peptide 32 μM)	Biofilm forming ability (A. baumannii #5 [6]; peptide 2 μM)	Biofilm forming ability (A. baumannii #5 [6]; peptide 4 μM)	other results
CC[C@H](C)[C@H](NC(=O)[C@H](CCCNC(=N)N)NC(=O)[C@H](CCC(N)=O)NC(=O)[C@@H](NC(=O)[C@@H](NC(=O)[C@H](CCCNC(=N)N)NC(=O)[C@H](CCCCN)NC(=O)[C@H](Cc1ccccc1)NC(=O)[C@H](CCC(=O)O)NC(=O)[C@@H](N)CCCCN)[C@@H](C)CC)C(C)C)C(=O)N[C@@H](CCCCN)C(=O)N[C@@H](CCCCN)C(=O)N[C@@H](Cc1ccccc1)C(=O)N[C@@H](CC(C)C)C(=O)N[C@@H](CCCNC(=N)N)C(=O)N[C@@H](CC(N)=O)C(N)=O [LL37-3, KEFKRIVQRIKKFLRN-NH2] (H-KEFKRIVQRIKKFLRN-NH2; N-terminus assumed)	bacteria membrane was damaged	16 µM (≈ 33.6 µg/mL)	4 µM (≈ 8.41 µg/mL)	2 µM (≈ 4.21 µg/mL)	4 µM (≈ 8.41 µg/mL)	2 µM (≈ 4.21 µg/mL)	4 µM (≈ 8.41 µg/mL)	4 µM (≈ 8.41 µg/mL)	4 µM (≈ 8.41 µg/mL)	4 µM (≈ 8.41 µg/mL)	2 µM (≈ 4.21 µg/mL)	2 µM (≈ 4.21 µg/mL)	2 µM (≈ 4.21 µg/mL)	52%	41%	29%	25%	23%	60%	62%	Biofilm forming ability (A. baumannii #5 [6]; peptide 8 μM): 26%; Biofilm forming ability (A. baumannii #5 [6]; peptide 16 μM): 24%; Biofilm forming ability (A. baumannii #5 [6]; peptide 32 μM): 20%; Biofilm forming ability (A. baumannii #10 [7]; peptide 2 μM): 61%; Biofilm forming ability (A. baumannii #10 [7]; peptide 4 μM): 38%; Biofilm forming ability (A. baumannii #10 [7]; peptide 8 μM): 34%; Biofilm forming ability (A. baumannii #10 [7]; peptide 16 μM): 32%; Biofilm forming ability (A. baumannii #10 [7]; peptide 32 μM): 30%; Minimal inhibitory concentration (E. coli ATCC 25922): 32 µM (≈ 67.3 µg/mL); Minimal inhibitory concentration (S. aureus ATCC 25923): 4 µM (≈ 8.41 µg/mL); expression level of HMGB-1 and late cytokine (IL-1b and TNF-α) [8]: increase in expression level of HMGB-1 and late cytokine is lower
CC[C@H](C)[C@H](NC(=O)[C@H](CCCNC(=N)N)NC(=O)[C@H](CCC(N)=O)NC(=O)[C@@H](NC(=O)[C@@H](NC(=O)[C@H](CCCNC(=N)N)NC(=O)[C@H](CCCCN)NC(=O)[C@H](Cc1ccccc1)NC(=O)[C@H](CCCCN)NC(=O)[C@@H](N)CCCCN)[C@@H](C)CC)C(C)C)C(=O)N[C@@H](CCCCN)C(=O)N[C@@H](CCCCN)C(=O)N[C@@H](Cc1ccccc1)C(=O)N[C@@H](CC(C)C)C(=O)N[C@@H](CCCNC(=N)N)C(=O)N[C@@H](CC(N)=O)C(N)=O [LL37-4, KKFKRIVQRIKKFLRN-NH2] (H-KKFKRIVQRIKKFLRN-NH2; N-terminus assumed)	bacteria membrane was damaged	4 µM (≈ 8.41 µg/mL)	2 µM (≈ 4.2 µg/mL)	2 µM (≈ 4.2 µg/mL)	2 µM (≈ 4.2 µg/mL)	2 µM (≈ 4.2 µg/mL)	2 µM (≈ 4.2 µg/mL)	2 µM (≈ 4.2 µg/mL)	4 µM (≈ 8.41 µg/mL)	2 µM (≈ 4.2 µg/mL)	2 µM (≈ 4.2 µg/mL)	2 µM (≈ 4.2 µg/mL)	2 µM (≈ 4.2 µg/mL)	48%	32%	28%	23%	22%	74%	59%	Minimal inhibitory concentration of antimicrobial peptide (A. baumannii KCTC 2508 [2]; KCTC 2508): 4 µM; Biofilm forming ability (A. baumannii #5 [6]; peptide 8 μM): 49%; Biofilm forming ability (A. baumannii #5 [6]; peptide 16 μM): 22%; Biofilm forming ability (A. baumannii #5 [6]; peptide 32 μM): 20%; Biofilm forming ability (A. baumannii #10 [7]; peptide 2 μM): 49%; Biofilm forming ability (A. baumannii #10 [7]; peptide 4 μM): 37%; Biofilm forming ability (A. baumannii #10 [7]; peptide 8 μM): 33%; Biofilm forming ability (A. baumannii #10 [7]; peptide 16 μM): 33%; Biofilm forming ability (A. baumannii #10 [7]; peptide 32 μM): 30%; Minimal inhibitory concentration (E. coli ATCC 25922): 16 µM (≈ 33.6 µg/mL); Minimal inhibitory concentration (S. aureus ATCC 25923): 2 µM (≈ 4.2 µg/mL); expression level of HMGB-1 and late cytokine (IL-1b and TNF-α) [8]: increase in expression level of HMGB-1 and late cytokine is lower
